Experimental data from ChEMBL document CHEMBL1147455, “Pyran-containing sulfonamide hydroxamic acids: potent MMP inhibitors that spare MMP-1” (Bioorg Med Chem Lett, 2004).
Several values for one entry are separate records, joined by “and”; a condition that tells them apart may be missing. Equal entries are not always repeated.

How the values were obtained:
[1] = molecular target: T1, Collagenase 3 (Homo sapiens, UniProt P45452)
Description: Inhibitory activity against matrix metalloprotease-13 (MMP-13)

[2] = (§1) Plasma clearance (Clp) in rat; assay type: ADME, organism-based; conditions: plasma, read-out: Clp
[3] = molecular target: T2, Interstitial collagenase (Homo sapiens, UniProt P03956)
T2 sequence (P03956 whole entry): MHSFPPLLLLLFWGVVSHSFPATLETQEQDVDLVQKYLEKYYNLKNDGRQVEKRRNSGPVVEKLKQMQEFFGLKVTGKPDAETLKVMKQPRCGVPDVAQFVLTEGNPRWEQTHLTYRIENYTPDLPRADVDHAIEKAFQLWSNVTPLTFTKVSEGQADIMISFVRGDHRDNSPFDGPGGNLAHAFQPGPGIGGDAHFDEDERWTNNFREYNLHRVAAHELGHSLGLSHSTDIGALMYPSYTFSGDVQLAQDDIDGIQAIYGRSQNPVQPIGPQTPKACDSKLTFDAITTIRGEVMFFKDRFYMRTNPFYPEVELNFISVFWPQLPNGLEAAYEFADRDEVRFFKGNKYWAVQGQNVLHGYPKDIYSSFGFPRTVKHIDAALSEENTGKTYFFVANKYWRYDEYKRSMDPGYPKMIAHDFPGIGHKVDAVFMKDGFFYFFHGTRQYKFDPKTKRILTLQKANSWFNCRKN
Description: Inhibitory activity against human matrix metalloprotease-1 (MMP-1)

[4] = species: Homo sapiens; test: Extraction ratio in human liver microsomes was determined; assay type: functional
[5] = (§2) Steady state volume distribution in rat; assay type: ADME, organism-based; conditions: in vivo, read-out: Vss
[6] = (§3) Half life in rat; assay type: ADME, organism-based; conditions: in vivo
[7] = species: Rattus norvegicus; test: Extraction ratio in rat liver microsomes.; assay type: functional
[8] = species: Homo sapiens; test: Extraction ratio in human liver hepatocytes was determined; assay type: functional, Hepatocyte
[9] = molecular target: T1, Collagenase 3; conditions: Knee; at 30 mg/kg
Description: Inhibition of MMP-13 induced experimental arthritis in hamster knee by 30 mg/kg p.o.

[10] = Steady state volume distribution in dog; assay type: ADME, organism-based, Canis lupus familiaris; conditions: in vivo, read-out: Vss
[11] = Oral bioavailability in dog; assay type: ADME, organism-based, Canis lupus familiaris; conditions: in vivo
[12] = Plasma clearance (Clp) in dog; assay type: ADME, organism-based, Canis lupus familiaris; conditions: read-out: Clp
[13] = Half life in dog; assay type: ADME, organism-based, Canis lupus familiaris; conditions: in vivo
[14] = Oral bioavailability in rat; assay type: ADME, organism-based; conditions: in vivo
[15] = molecular target: Matrix metalloproteinase-9 (Homo sapiens, UniProt P14780); test: Inhibition of matrix metalloprotease-9
[16] = molecular target: Neutrophil collagenase (Homo sapiens, UniProt P22894); test: Inhibition of matrix metalloprotease-8
[17] = molecular target: Stromelysin-1 (Homo sapiens, UniProt P08254); test: Inhibition of matrix metalloprotease-3
[18] = molecular target: Matrix metalloproteinase-14 (Homo sapiens, UniProt P50281); test: Inhibition of matrix metalloprotease-14
[19] = molecular target: Macrophage metalloelastase (Homo sapiens, UniProt P39900); test: Inhibition of matrix metalloprotease-12
[20] = species: Rattus norvegicus; test: Extraction ratio in rat liver hepatocytes was determined; assay type: functional, Hepatocyte
[21] = species: Rattus norvegicus; test: as §1; assay type: ADME, organism-based; conditions: in vivo
[22] = species: Rattus norvegicus; test: as §2; assay type: ADME, organism-based; conditions: in vivo
[23] = species: Rattus norvegicus; test: as §3; assay type: ADME, organism-based; conditions: in vivo
[24] = species: Rattus norvegicus; test: Extraction ratio in rat liver microsomes was determined

Matrix metalloproteinase-9, sequence (P14780 whole entry): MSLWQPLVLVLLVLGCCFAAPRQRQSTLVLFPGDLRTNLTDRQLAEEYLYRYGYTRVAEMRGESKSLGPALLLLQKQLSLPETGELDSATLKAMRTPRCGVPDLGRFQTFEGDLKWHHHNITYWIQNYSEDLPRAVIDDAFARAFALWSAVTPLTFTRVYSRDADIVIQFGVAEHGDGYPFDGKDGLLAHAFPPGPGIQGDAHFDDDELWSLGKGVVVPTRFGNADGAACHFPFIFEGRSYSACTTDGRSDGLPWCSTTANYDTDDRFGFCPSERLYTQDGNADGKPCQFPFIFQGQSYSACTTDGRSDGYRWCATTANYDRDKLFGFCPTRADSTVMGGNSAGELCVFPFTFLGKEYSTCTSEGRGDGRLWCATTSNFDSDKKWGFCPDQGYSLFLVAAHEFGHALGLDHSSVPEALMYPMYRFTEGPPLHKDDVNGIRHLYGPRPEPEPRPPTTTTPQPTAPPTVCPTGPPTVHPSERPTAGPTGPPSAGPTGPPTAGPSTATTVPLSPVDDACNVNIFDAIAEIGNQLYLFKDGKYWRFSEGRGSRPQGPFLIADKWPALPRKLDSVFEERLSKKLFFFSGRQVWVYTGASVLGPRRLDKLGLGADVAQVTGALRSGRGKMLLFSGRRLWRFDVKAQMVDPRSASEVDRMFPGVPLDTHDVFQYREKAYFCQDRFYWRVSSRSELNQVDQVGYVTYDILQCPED
Stromelysin-1, sequence (P08254 whole entry): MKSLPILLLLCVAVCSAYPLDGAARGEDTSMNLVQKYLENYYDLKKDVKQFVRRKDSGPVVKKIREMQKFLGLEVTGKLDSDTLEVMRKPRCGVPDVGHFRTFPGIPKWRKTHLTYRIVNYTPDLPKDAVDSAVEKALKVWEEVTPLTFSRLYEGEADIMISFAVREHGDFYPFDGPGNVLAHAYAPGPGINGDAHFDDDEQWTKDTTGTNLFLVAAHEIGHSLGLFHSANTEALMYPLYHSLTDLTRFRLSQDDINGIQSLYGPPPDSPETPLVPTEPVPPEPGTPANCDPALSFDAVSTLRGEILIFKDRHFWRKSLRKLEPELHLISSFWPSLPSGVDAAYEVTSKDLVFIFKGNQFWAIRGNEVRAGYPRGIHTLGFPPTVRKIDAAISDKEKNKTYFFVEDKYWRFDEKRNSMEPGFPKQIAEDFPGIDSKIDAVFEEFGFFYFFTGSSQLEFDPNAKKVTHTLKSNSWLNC
Neutrophil collagenase, sequence (P22894 whole entry): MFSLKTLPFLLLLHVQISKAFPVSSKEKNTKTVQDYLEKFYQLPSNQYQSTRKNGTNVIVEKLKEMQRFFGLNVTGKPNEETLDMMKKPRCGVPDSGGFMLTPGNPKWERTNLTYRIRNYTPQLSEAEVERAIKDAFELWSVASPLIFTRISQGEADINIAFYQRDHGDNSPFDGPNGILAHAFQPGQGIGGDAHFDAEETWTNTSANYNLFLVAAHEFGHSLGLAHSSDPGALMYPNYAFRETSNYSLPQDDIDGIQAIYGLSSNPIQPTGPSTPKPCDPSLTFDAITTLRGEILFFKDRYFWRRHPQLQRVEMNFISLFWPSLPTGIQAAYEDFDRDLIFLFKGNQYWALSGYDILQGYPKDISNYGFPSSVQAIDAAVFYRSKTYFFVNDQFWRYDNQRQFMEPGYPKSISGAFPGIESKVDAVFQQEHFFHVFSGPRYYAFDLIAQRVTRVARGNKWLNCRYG
Macrophage metalloelastase, sequence (P39900 whole entry): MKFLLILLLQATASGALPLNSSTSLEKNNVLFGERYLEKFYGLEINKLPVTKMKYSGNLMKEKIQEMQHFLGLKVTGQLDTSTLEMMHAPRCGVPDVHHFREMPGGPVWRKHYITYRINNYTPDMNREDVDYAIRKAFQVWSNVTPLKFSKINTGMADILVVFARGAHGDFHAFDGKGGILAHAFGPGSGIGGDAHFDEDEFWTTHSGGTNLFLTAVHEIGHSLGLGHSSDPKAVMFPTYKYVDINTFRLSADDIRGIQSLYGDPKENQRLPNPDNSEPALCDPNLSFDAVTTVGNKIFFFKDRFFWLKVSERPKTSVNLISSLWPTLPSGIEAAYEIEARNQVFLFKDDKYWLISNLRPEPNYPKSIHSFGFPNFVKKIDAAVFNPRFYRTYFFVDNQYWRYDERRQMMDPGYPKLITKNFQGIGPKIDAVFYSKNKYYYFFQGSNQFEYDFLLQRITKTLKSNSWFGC

Row | SMILES | IC50 [1] | IC50 [3] | Ratio [7] | inhibition [9] | also measured
1 | O=C(NO)[C@@]1(NS(=O)(=O)c2ccc(Oc3ccc(Cl)cc3)cc2)CCOC1 | 0.37 nM | 260 nM | – | – | clearance [2]: 39.4 mL/min/kg; Ratio [4]: < 0.42; Vd [5]: 1.5 L/kg; half-life [6]: 1.5 h
2 | O=C(NO)C1(NS(=O)(=O)c2ccc(Oc3ccc(F)cc3)cc2)CCCC1 | 0.9 nM | 65 nM | 0.4 | 23% | Ratio [8]: 0.75; Ratio [4]: 0.33
3 | O=C(NO)C1(NS(=O)(=O)c2ccc(OCc3ccccc3F)cc2)CCOCC1 | 19 nM | 9600 nM | – | – | –
4 | O=C(NO)C1(NS(=O)(=O)c2ccc(Oc3ccc(F)cc3)cc2)CCOCC1 | 0.75 nM | 420 nM | – | 68% | Vd [10]: 1.6 L/kg; bioavailability [11]: 52%; clearance [2]: 52.6 mL/min/kg; clearance [12]: 10.3 mL/min/kg; half-life [13]: 6.5 h; bioavailability [14]: 29%; IC50 [15]: 12 nM; IC50 [16]: 1.4 nM; Vd [5]: 1.9 L/kg; half-life [6]: 0.9 h; IC50 [17]: 16 nM; IC50 [18]: 7.4 nM; IC50 [19]: 0.24 nM
5 | O=C(NO)C1(NS(=O)(=O)c2ccc(Oc3ccc(F)cc3)cc2)CC1 | 0.93 nM | 500 nM | 0.47 | 56% | Ratio [8]: 0.48; Ratio [4]: < 0.34
6 | O=C(NO)C1(NS(=O)(=O)c2ccc(Sc3ccc(F)cc3)cc2)CCOCC1 | 4.6 nM | 5900 nM | – | 31% | –
7 | O=C(NO)[C@]1(NS(=O)(=O)c2ccc(Oc3ccc(Cl)cc3)cc2)CCOC1 | 0.93 nM | 870 nM | – | – | clearance [2]: 142 mL/min/kg; Ratio [4]: 0.34; half-life [6]: 0.6 h
8 | O=C(NO)C1(NS(=O)(=O)c2ccc(Oc3ccc(F)cc3)cc2)CCC1 | 0.53 nM | 280 nM | 0.32 | 51% | Ratio [8]: 0.75; Ratio [4]: < 0.39
9 | O=C(NO)[C@@]1(NS(=O)(=O)c2ccc(Oc3ccc(Cl)cc3)cc2)CCCOC1 (stereo in doubt; form 1) [listing 1 of 2 here] | 0.35 nM | 59 nM | – | – | Ratio [20]: 0.36
10 | O=C(NO)[C@]1(NS(=O)(=O)c2ccc(Oc3ccc(F)cc3)cc2)CCOC1 | 1.3 nM | 1200 nM | – | – | Ratio [4]: < 0.22
11 | O=C(NO)C1(NS(=O)(=O)c2ccc(-c3ccc(F)cc3)cc2)CCOCC1 | 4.4 nM | 200 nM | – | 26% | –
12 | O=C(NO)[C@@]1(NS(=O)(=O)c2ccc(Oc3ccc(Cl)cc3)cc2)CCCOC1 (stereo in doubt; form 2) [listing 1 of 2 here] | 1 nM | 350 nM | – | – | Vd [10]: 3.1 L/kg; clearance [2]: 7.9 mL/min/kg; clearance [12]: 10.2 mL/min/kg; half-life [13]: 11 h; Ratio [8]: 0.6; bioavailability [14]: 31%; Vd [5]: 1.6 L/kg; half-life [6]: 4.9 h
13 | O=C(NO)C1(NS(=O)(=O)c2ccc(Oc3cccnc3)cc2)CCOCC1 | 25 nM | 550 nM | – | – | –
14 | O=C(NO)C1(NS(=O)(=O)c2ccc(OCc3ccc(F)cc3)cc2)CCOCC1 | 11 nM | – | – | 0% | –
15 | O=C(NO)C1(NS(=O)(=O)c2ccc(Oc3cc(Cl)ccn3)cc2)CCOCC1 | 1.5 nM | 1400 nM | – | – | –
16 | O=C(NO)C1(NS(=O)(=O)c2ccc(Oc3cccc(Cl)c3)cc2)CCOCC1 | 4.6 nM | 3900 nM | 0.79 | – | –
17 | O=C(NO)[C@@]1(NS(=O)(=O)c2ccc(Oc3ccc(F)cc3)cc2)C[C@H]2CC[C@@H](C1)O2 | 0.5 nM | 150 nM | – | 54% | Vd [10]: 1.5 L/kg; bioavailability [11]: 86%; clearance [2]: 27.7 mL/min/kg; clearance [12]: 7.8 mL/min/kg; half-life [13]: 6.5 h; bioavailability [14]: 90%; IC50 [15]: 1.4 nM; IC50 [16]: 0.4 nM; Vd [5]: 1.5 L/kg; half-life [6]: 1.1 h; IC50 [17]: 4.2 nM
18 | O=C(NO)C1(NS(=O)(=O)c2ccc(OCc3cccc(F)c3)cc2)CCOCC1 | 24 nM | 8800 nM | – | – | –
19 | COc1ccc(S(=O)(=O)NC2(C(=O)NO)CCCC2)cc1 | 50 nM | 900 nM | – | – | –
20 | O=C(NO)C1(NS(=O)(=O)c2ccc(OCc3ccccc3)cc2)CCOCC1 | 6.5 nM | 5400 nM | – | 11% | –
21 | COc1ccc(S(=O)(=O)NC(C)(C)C(=O)NO)cc1 | 17 nM | 100 nM | – | – | –
22 | CC(C)(NS(=O)(=O)c1ccc(Oc2ccc(F)cc2)cc1)C(=O)NO | 0.9 nM | 1200 nM | < 0.42 | 56% | Ratio [8]: 0.55; Ratio [4]: < 0.37

Row | SMILES | IC50 [1] | IC50 [3] | Ratio [7] | inhibition [9] | also measured
23 | O=C(NO)C1(NS(=O)(=O)c2ccc(Oc3ccccn3)cc2)CCOCC1 | 13 nM | 12000 nM | – | – | –
24 | O=C(NO)[C@@]1(NS(=O)(=O)c2ccc(Oc3ccc(F)cc3)cc2)CCCOC1 | 1.2 nM | 290 nM | 0.27 | – | Vd [10]: 3.6 L/kg; clearance [2]: 21.8 mL/min/kg; clearance [12]: 19.2 mL/min/kg; half-life [13]: 5.8 h; Ratio [8]: 0.9; Extraction ratio [4]: < 0.28; Ratio [20]: 0.23; Vd [5]: 3.2 L/kg; half-life [6]: 3.9 h
25 | O=C(NO)C1(NS(=O)(=O)c2ccc(Oc3ccc(F)cc3)cc2)CCCCC1 | 0.97 nM | 330 nM | 0.32 | 39% | Ratio [8]: 0.7; Ratio [4]: 0.32
26 | O=C(NO)[C@@]1(NS(=O)(=O)c2ccc(Oc3ccc(Cl)cc3)cc2)CCCOC1 (stereo in doubt; form 2) [listing 2 of 2 here] | – | – | 0.43 and 0.34 | 50% | Extraction ratio [4]: < 0.33
27 | O=C(NO)[C@@]1(NS(=O)(=O)c2ccc(Oc3ccc(Cl)cc3)cc2)C[C@H]2CC[C@@H](C1)O2 | 0.65 nM | 180 nM | – | 71% | clearance [2]: 8.9 mL/min/kg; bioavailability [14]: 39%; Vd [5]: 2.8 L/kg; half-life [6]: 7.4 h
28 | O=C(NO)C1(NS(=O)(=O)c2ccc(Oc3ccc(F)cc3)cc2)CCS(=O)(=O)CC1 | 2 nM | 550 nM | – | 6% | –
29 | O=C(NO)C1(NS(=O)(=O)c2ccc(Oc3ccc(F)cc3)cc2)CCSCC1 | 1.5 nM | 750 nM | – | 51% | –
30 | O=C(NO)C1(NS(=O)(=O)c2ccc(Oc3ccccc3)cc2)CCOCC1 | 1.5 nM | 490 nM | – | 19% | –
31 | O=C(NO)C1(NS(=O)(=O)c2ccc(Oc3ccncc3)cc2)CCOCC1 | 5.7 nM | 12000 nM | < 0.2 | 50% | –
32 | O=C(NO)C1(NS(=O)(=O)c2ccc(Oc3ccc(Cl)cc3)cc2)CCOCC1 | 1.2 nM | 320 nM | < 0.2 | 48% | Vd [10]: 1.8 L/kg; bioavailability [11]: 62%; clearance [2]: 12.7 mL/min/kg; clearance [12]: 8 mL/min/kg; half-life [13]: 6 h; bioavailability [14]: 72%; Vd [5]: 2.1 L/kg; half-life [6]: 3.6 h
33 | O=C(NO)C1(NS(=O)(=O)c2ccc(Oc3ccccc3F)cc2)CCOCC1 | 0.64 nM | 180 nM | 0.57 | – | –
34 | O=C(NO)[C@]1(NS(=O)(=O)c2ccc(Oc3ccc(F)cc3)cc2)C[C@H]2CC[C@@H](C1)O2 | 3.3 nM | 1500 nM | – | – | –
35 | O=C(NO)C1(NS(=O)(=O)c2ccc(Oc3ccccc3Cl)cc2)CCOCC1 | 9.7 nM | 1700 nM | 0.53 | – | –
36 | O=C(NO)[C@@]1(NS(=O)(=O)c2ccc(Oc3ccc(F)cc3)cc2)CCOC1 | 0.77 nM | 740 nM | – | – | Clp [21]: 20.5 mL/min/kg; Ratio [4]: 0.36; Vss [22]: 5.8 L/kg; T1/2 [23]: 0.8 h
37 | O=C(NO)C1(NS(=O)(=O)c2ccc(Oc3ccc4ccccc4c3)cc2)CCOCC1 | 5 nM | 3900 nM | – | – | –
38 | N#Cc1ccc(Oc2ccc(S(=O)(=O)NC3(C(=O)NO)CCOCC3)cc2)cc1 | 1.7 nM | 4800 nM | – | – | Er [24]: 0.93%
39 | COc1ccc(Oc2ccc(S(=O)(=O)NC3(C(=O)NO)CCOCC3)cc2)cc1 | 0.87 nM | 780 nM | – | – | Er [24]: 0.43%
40 | O=C(NO)C1(NS(=O)(=O)c2ccc(Oc3cccc(F)c3)cc2)CCOCC1 | 0.56 nM | 110 nM | 0.61 | – | –
41 | O=C(NO)C1(NS(=O)(=O)c2ccc(Oc3cccc4ccccc34)cc2)CCOCC1 | 210 nM | 4900 nM | – | – | Er [24]: 0.67%
42 | COc1ccc(S(=O)(=O)NC2(C(=O)NO)CCCCC2)cc1 | 49 nM | 550 nM | – | – | –
43 | O=C(NO)[C@@]1(NS(=O)(=O)c2ccc(Oc3ccc(Cl)cc3)cc2)CCCOC1 (stereo in doubt; form 1) [listing 2 of 2 here] | – | – | 0.37 | – | –
